Key:
Test in all cases: Microbiological challenge testing in BPW broth, graded subculture counts
Assay type in all cases: cell-based
[1] = test system: Aeromonas sp. Wild type
How it was run: (§1)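 Serial 1:10 dilutions were made in pH 7.2 phosphate buffer and spread-plated onto PCA, and colonies were counted after 48 h or more at 35 °C. In the challenge, BPW–dextrose tubes containing the test material received inoculum at 10^5–10^6 CFU/mL at time zero. Controls without test material served as reference.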

[2] = test system: Pseudomonas aeruginosa Wild type; conditions: P. aeruginosa
How it was run: as §1

[3] = test system: Staphylococcus aureus ATCC 25923; conditions: S. aureus
How it was run: as §1

[4] = test system: Burkholderia cepacia Wild type; conditions: B. cepacia
How it was run: as §1

[5] = test system: Bacillus subtilis Wild type
How it was run: as §1

[6] = test system: Streptococcus mutans ATCC 35668
How it was run: as §1

With `CC1(C)C(O)C(C)(C)C1O` (stereo not drawn) [TMCBD, 2,2,4,4-tetramethyl-1,3-cyclobutanediol] the “Aeromonas sp growth grade, 3 day” value ([1]; 0.5% weight/volume) was 5 (More than 10,000 colonies estimated (thus more than 100,000 CFU/mL)), the “Aeromonas sp growth grade, 14 day” value ([1]; 0.5% weight/volume) was 4 (1000 to 10,000 colonies countable (thus 10,000 CFU/mL to 100,000 CFU/mL)) and the “Aeromonas sp growth grade, 30 day” value ([1]; 0.5% weight/volume) was 4 (1000 to 10,000 colonies countable (thus 10,000 CFU/mL to 100,000 CFU/mL)). For the same compound, the “Aeromonas sp growth grade, 3 day” value ([1]; 1.25% weight/volume) was 4 (1000 to 10,000 colonies countable (thus 10,000 CFU/mL to 100,000 CFU/mL)), the “Aeromonas sp growth grade, 14 day” value ([1]; 1.25% weight/volume) was 4 (1000 to 10,000 colonies countable (thus 10,000 CFU/mL to 100,000 CFU/mL)) and the “Aeromonas sp growth grade, 30 day” value ([1]; 1.25% weight/volume) was 4 (1000 to 10,000 colonies countable (thus 10,000 CFU/mL to 100,000 CFU/mL)). For the same compound, the “Aeromonas sp growth grade, 3 day” value ([1]; 2.5% weight/volume) was 4 (1000 to 10,000 colonies countable (thus 10,000 CFU/mL to 100,000 CFU/mL)), the “Aeromonas sp growth grade, 14 day” value ([1]; 2.5% weight/volume) was 2 (52 to 100 colonies counted (thus 520 to 1000 CFU/mL)) and the “Aeromonas sp growth grade, 30 day” value ([1]; 2.5% weight/volume) was 3 (100 to 1000 colonies (thus 1000 to 10,000 CFU/mL)). The “Aeromonas sp growth grade, 3 day” value ([1]; 5.0% weight/volume) was 2 (52 to 100 colonies counted (thus 520 to 1000 CFU/mL)), the “Aeromonas sp growth grade, 14 day” value ([1]; 5.0% weight/volume) was 0 and the “Aeromonas sp growth grade, 30 day” value ([1]; 5.0% weight/volume) was 0. The Grade ([2]; 0.5% (wt/vol), 3 day) was 5 (More than 10,000 colonies estimated (thus more than 100,000 CFU/mL)), the Grade ([2]; 0.5% (wt/vol), 13 day) was 5 (More than 10,000 colonies estimated (thus more than 100,000 CFU/mL)) and the Grade ([2]; 0.5% (wt/vol), 30 day) was 5 (More than 10,000 colonies estimated (thus more than 100,000 CFU/mL)). The Grade ([2]; 1.25% (wt/vol), 3 day) was 4 (1000 to 10,000 colonies countable (thus 10,000 CFU/mL to 100,000 CFU/mL)), the Grade ([2]; 1.25% (wt/vol), 13 day) was 4 (1000 to 10,000 colonies countable (thus 10,000 CFU/mL to 100,000 CFU/mL)) and the Grade ([2]; 1.25% (wt/vol), 30 day) was 4 (1000 to 10,000 colonies countable (thus 10,000 CFU/mL to 100,000 CFU/mL)). The Grade ([2]; 2.5% (wt/vol), 3 day) was 4 (1000 to 10,000 colonies countable (thus 10,000 CFU/mL to 100,000 CFU/mL)), the Grade ([2]; 2.5% (wt/vol), 13 day) was 3 (100 to 1000 colonies (thus 1000 to 10,000 CFU/mL)) and the Grade ([2]; 2.5% (wt/vol), 30 day) was 4 (1000 to 10,000 colonies countable (thus 10,000 CFU/mL to 100,000 CFU/mL)). For the same compound, the Grade ([2]; 5.0% (wt/vol), 3 day) was 3 (100 to 1000 colonies (thus 1000 to 10,000 CFU/mL)), the Grade ([2]; 5.0% (wt/vol), 13 day) was 1 (0 to 51 colonies counted (thus 10 to 510 CFU/mL based on 0.1-mL sample)) and the Grade ([2]; 5.0% (wt/vol), 30 day) was 0. The Grade ([3]; 0.5% (wt/vol), 3 day) was 4 (1000 to 10,000 colonies countable (thus 10,000 CFU/mL to 100,000 CFU/mL)), the Grade ([3]; 0.5% (wt/vol), 14 day) was 4 (1000 to 10,000 colonies countable (thus 10,000 CFU/mL to 100,000 CFU/mL)) and the Grade ([3]; 0.5% (wt/vol), 30 day) was 4 (1000 to 10,000 colonies countable (thus 10,000 CFU/mL to 100,000 CFU/mL)). For the same compound, the Grade ([3]; 1.25% (wt/vol), 3 day) was 4 (1000 to 10,000 colonies countable (thus 10,000 CFU/mL to 100,000 CFU/mL)), the Grade ([3]; 1.25% (wt/vol), 14 day) was 4 (1000 to 10,000 colonies countable (thus 10,000 CFU/mL to 100,000 CFU/mL)) and the Grade ([3]; 1.25% (wt/vol), 30 day) was 4 (1000 to 10,000 colonies countable (thus 10,000 CFU/mL to 100,000 CFU/mL)). The Grade ([3]; 2.5% (wt/vol), 3 day) was 2 (52 to 100 colonies counted (thus 520 to 1000 CFU/mL)), the Grade ([3]; 2.5% (wt/vol), 14 day) was 1 (0 to 51 colonies counted (thus 10 to 510 CFU/mL based on 0.1-mL sample)) and the Grade ([3]; 2.5% (wt/vol), 30 day) was 1 (0 to 51 colonies counted (thus 10 to 510 CFU/mL based on 0.1-mL sample)). For the same compound, the Grade ([3]; 5.0% (wt/vol), 3 day) was 0, the Grade ([3]; 5.0% (wt/vol), 14 day) was 0 and the Grade ([3]; 5.0% (wt/vol), 30 day) was 0. For the same compound, the Grade ([4]; 0.5% (wt/vol), 3 day) was 4 (1000 to 10,000 colonies countable (thus 10,000 CFU/mL to 100,000 CFU/mL)), the Grade ([4]; 0.5% (wt/vol), 14 day) was 4 (1000 to 10,000 colonies countable (thus 10,000 CFU/mL to 100,000 CFU/mL)) and the Grade ([4]; 0.5% (wt/vol), 30 day) was 4 (1000 to 10,000 colonies countable (thus 10,000 CFU/mL to 100,000 CFU/mL)). For the same compound, the Grade ([4]; 1.25% (wt/vol), 3 day) was 3 (100 to 1000 colonies (thus 1000 to 10,000 CFU/mL)), the Grade ([4]; 1.25% (wt/vol), 14 day) was 2 (52 to 100 colonies counted (thus 520 to 1000 CFU/mL)) and the Grade ([4]; 1.25% (wt/vol), 30 day) was 4 (1000 to 10,000 colonies countable (thus 10,000 CFU/mL to 100,000 CFU/mL)). For the same compound, the Grade ([4]; 2.5% (wt/vol), 3 day) was 1 (0 to 51 colonies counted (thus 10 to 510 CFU/mL based on 0.1-mL sample)), the Grade ([4]; 2.5% (wt/vol), 14 day) was 0 and the Grade ([4]; 2.5% (wt/vol), 30 day) was 0. For the same compound, the Grade ([4]; 5.0% (wt/vol), 3 day) was 1 (0 to 51 colonies counted (thus 10 to 510 CFU/mL based on 0.1-mL sample)), the Grade ([4]; 5.0% (wt/vol), 14 day) was 0 and the Grade ([4]; 5.0% (wt/vol), 30 day) was 0. For the same compound, the “B. subtillis growth grade, 3 day” value ([5]; 0.5% weight/volume) was 4 (1000 to 10,000 colonies countable (thus 10,000 CFU/mL to 100,000 CFU/mL)), the “B. subtillis growth grade, 14 day” value ([5]; 0.5% weight/volume) was 4 (1000 to 10,000 colonies countable (thus 10,000 CFU/mL to 100,000 CFU/mL)) and the “B. subtillis growth grade, 30 day” value ([5]; 0.5% weight/volume) was 4 (1000 to 10,000 colonies countable (thus 10,000 CFU/mL to 100,000 CFU/mL)). For the same compound, the “B. subtillis growth grade, 3 day” value ([5]; 1.25% weight/volume) was 4 (1000 to 10,000 colonies countable (thus 10,000 CFU/mL to 100,000 CFU/mL)), the “B. subtillis growth grade, 14 day” value ([5]; 1.25% weight/volume) was 4 (1000 to 10,000 colonies countable (thus 10,000 CFU/mL to 100,000 CFU/mL)) and the “B. subtillis growth grade, 30 day” value ([5]; 1.25% weight/volume) was 4 (1000 to 10,000 colonies countable (thus 10,000 CFU/mL to 100,000 CFU/mL)). For the same compound, the “B. subtillis growth grade, 3 day” value ([5]; 2.5% weight/volume) was 4 (1000 to 10,000 colonies countable (thus 10,000 CFU/mL to 100,000 CFU/mL)), the “B. subtillis growth grade, 14 day” value ([5]; 2.5% weight/volume) was 4 (1000 to 10,000 colonies countable (thus 10,000 CFU/mL to 100,000 CFU/mL)) and the “B. subtillis growth grade, 30 day” value ([5]; 2.5% weight/volume) was 4 (1000 to 10,000 colonies countable (thus 10,000 CFU/mL to 100,000 CFU/mL)). For the same compound, the “B. subtillis growth grade, 3 day” value ([5]; 5.0% weight/volume) was 4 (1000 to 10,000 colonies countable (thus 10,000 CFU/mL to 100,000 CFU/mL)), the “B. subtillis growth grade, 14 day” value ([5]; 5.0% weight/volume) was 2 (52 to 100 colonies counted (thus 520 to 1000 CFU/mL)) and the “B. subtillis growth grade, 30 day” value ([5]; 5.0% weight/volume) was 0. For the same compound, the “S. mutans growth grade, 3 day” value ([6]; 0.5% weight/volume) was 4 (1000 to 10,000 colonies countable (thus 10,000 CFU/mL to 100,000 CFU/mL)), the “S. mutans growth grade, 13 day” value ([6]; 0.5% weight/volume) was 4 (1000 to 10,000 colonies countable (thus 10,000 CFU/mL to 100,000 CFU/mL)) and the “S. mutans growth grade, 30 day” value ([6]; 0.5% weight/volume) was 4 (1000 to 10,000 colonies countable (thus 10,000 CFU/mL to 100,000 CFU/mL)). For the same compound, the “S. mutans growth grade, 3 day” value ([6]; 1.25% weight/volume) was 4 (1000 to 10,000 colonies countable (thus 10,000 CFU/mL to 100,000 CFU/mL)), the “S. mutans growth grade, 13 day” value ([6]; 1.25% weight/volume) was 4 (1000 to 10,000 colonies countable (thus 10,000 CFU/mL to 100,000 CFU/mL)) and the “S. mutans growth grade, 30 day” value ([6]; 1.25% weight/volume) was 4 (1000 to 10,000 colonies countable (thus 10,000 CFU/mL to 100,000 CFU/mL)). For the same compound, the “S. mutans growth grade, 3 day” value ([6]; 2.5% weight/volume) was 3 (100 to 1000 colonies (thus 1000 to 10,000 CFU/mL)), the “S. mutans growth grade, 13 day” value ([6]; 2.5% weight/volume) was 1 (0 to 51 colonies counted (thus 10 to 510 CFU/mL based on 0.1-mL sample)) and the “S. mutans growth grade, 30 day” value ([6]; 2.5% weight/volume) was 0. For the same compound, the “S. mutans growth grade, 3 day” value ([6]; 5.0% weight/volume) was 0, the “S. mutans growth grade, 13 day” value ([6]; 5.0% weight/volume) was 0 and the “S. mutans growth grade, 30 day” value ([6]; 5.0% weight/volume) was 0.

From patent US20100160454A1, “ANTIMICROBIAL AGENTS, COMPOSITIONS AND PRODUCTS CONTAINING THE SAME, AND METHODS OF USING THE COMPOSITIONS AND PRODUCTS” (Eastman Chemical Company, priority 2008, published 2010)
